Test results reported in paper PMC11253624, “Unsaturated fatty acid perturbation combats emerging triazole antifungal resistance in the human fungal pathogen Aspergillus fumigatus” (mBio, 2024).
Converted amounts (≈) assume the structure as drawn. Read-outs that look alike come from different tables or passages of the source.

How the values were obtained:
Aspergillus niger = experiment: CLSI-based microbroth dilution MIC, spectrum of activity; format: cell-based
Aspergillus fumigatus [1] = experiment: Agar-based colony biofilm assay; format: cell-based; details: for inhibition at 0.58 µg/mL / inhibition at 1.16 µg/mL: Aspergillus fumigatus; for growth of parental wild-type strain in the presence of MBX-7591 (of untreated): concentration not given
Cryptococcus neoformans [2] = experiment: CLSI-based microbroth dilution MIC for yeast; format: cell-based; details: for MIC: Cryptococcus neoformans
Mucor spp. = experiment: CLSI-based microbroth dilution MIC, spectrum of activity; format: cell-based; details: for MIC: Mucor
P. variotii = experiment: microbe, parasite or virus in culture; format: cell-based; details: Paecilomyces variotii; strain MYA-3630
Candida albicans = experiment: CLSI-based microbroth dilution MIC for yeast; format: cell-based
Scedosporium spp. = experiment: CLSI-based microbroth dilution MIC, spectrum of activity; format: cell-based
Aspergillus terreus = experiment: microbe, parasite or virus in culture; format: cell-based; details: strain AT1
[3] = Aqueous solubility (nephelometric); format: physicochemical; details: kinetic from dmso stock
Description: The maximum aqueous solubility of each compound was determined using a nephelometric method as described ([51]). Each assay comprised three technical replicates, and each assay was repeated at least once. The reported solubility is the average of at least five technical replicates. […]

Aspergillus fumigatus [4] = experiment: FIC checkerboard synergy assay, A. fumigatus; format: cell-based; details: for MIC: Aspergillus fumigatus
[5] = Mammalian cell cytotoxicity (CC50); format: cell-based; details: human, HeLa cells (ATCC CCL-2)
Description: (§1) The half-maximal cytotoxic concentration (CC50) of each compound against HeLa cells (ATCC CCL-2) was measured as previously described ([50]). Each assay comprised three technical replicates, and each assay was repeated at least once. The mean values for each biological replicate were averaged, and the CC50 was determined using a four-parameter nonlinear curve fitting algorithm (GraphPad Prism). The average of the CC50s from two biological replicates was calculated and reported.

HeLa cells (ATCC CCL-2) = experiment: Mammalian cell cytotoxicity (CC50); format: cell-based
Description: as §1

[6] = test system: A. fumigatus strain ATCC46645; experiment: Murine model of invasive pulmonary aspergillosis; format: in vivo, mouse
Description: Outbred wild-type CD-1 female mice at 20–24 g (Charles River Laboratory, Raleigh, NC, USA) were randomized and housed in autoclaved cages at ≤4 mice per cage with HEPA-filtered air and water. Mice were immunosuppressed by subcutaneous injection with triamcinolone acetonide (Kenalong-10, Bristol-Myer Squibb) at 40 mg/kg of body weight. Twenty-four hours after immune suppression, mice were intranasally inoculated with 2 × 10^6 live conidia (in 40 µL of sterile PBS) or PBS alone as a control. A. fumigatus strain ATCC46645 was grown on 1% GMM for 3 days at 37°C, conidia were collected in 0.01% Tween, and washed three times in sterile PBS. Immediately after fungal inoculation, mice were intraperitoneally (IP) injected with either vehicle (5% DMSO/10% PS80/25% HPBCDX 0.07% sodium acetate) or MBX-7591 at 10 mg/kg of body weight (5% DMSO/10% PS80/25% HPBCDX 0.07% sodium acetate). Mice were injected IP with a second dose of vehicle or MBX-7591 at 10 mg/kg of body weight 8 hours after the first dose of the drug. Mice were sacrificed 24 hours post-fungal challenge, lungs were excised from the chest cavity, rinsed in sterile PBS, and flash frozen for fungal burden analysis. Relative fungal burden was assessed through qPCR quantitation of A. fumigatus 18S rDNA as previously described ([38][–][40]).

Cryptococcus neoformans [7] = experiment: FIC checkerboard assay MBX-7591 and oleic acid, C. neoformans; format: cell-based; details: H99, MBX-7591 + 31.25 μg/ml OA
Description: Single-treatment controls were completed with 50 µL of media to substitute the volume of the other compound. […] Additional untreated and media-only controls were added to the plate as described above. Incubation of the plates and MIC assessments (individual and in combination) were performed as described above. FIC calculations were done according to the established formula: ∑FIC=MIC combination compound A/MIC individual compound A + MIC combination compound B/MIC individual compound B . Synergy was considered equal or lower than 0.5, and antagonism was considered to be higher than 2. FIC scores reported represent between three and five biological replicates. All antifungal susceptibility testing was done in 96-well plates using RPMI 1640 media buffered with 165 mM of MOPS and pH 7 using NaOH. CLSI-based microbroth dilution assays were done in accordance with M27 ([49]). […] Additionally, an untreated control (100 µL of a stock of 2 × 10^3 spores/mL and 100 µL of media) and a media-only control (200 µL media) were included in the plate. The plate was covered in a Breathe-Eazy membrane to allow for uniform oxygen diffusion throughout the plate and incubated for 24 hours at 35°C (Candida spp.) or 72 hours at 35°C ± 5% CO2 (Cryptococcus neoformans).

Compound: O=C(c1ccsc1)N1CCC(Cc2ccc(COc3ccncc3)cc2)CC1 [MBX-7591]
- MIC (Aspergillus niger; Aspergillus niger, strain AN1): > 32 µg/mL
- MIC UTHSC (Aspergillus niger; strain AN2): > 32 µg/mL
- inhibition at 0.58 µg/mL (Aspergillus fumigatus [1]; AFS35, 0.58 μg/mL, read-out: growth inhibition): ~61%
- inhibition at 1.16 µg/mL (Aspergillus fumigatus [1]; AFS35, 1.16 μg/mL, read-out: growth inhibition): ~70%
- inhibition at 0.58 µg/mL (Aspergillus fumigatus [1]; phspA:atrR, 0.58 μg/mL, read-out: growth inhibition): ~9%
- inhibition at 1.16 µg/mL (Aspergillus fumigatus [1]; phspA:atrR, 1.16 μg/mL, read-out: growth inhibition): ~19%
- inhibition at 1.16 µg/mL (Aspergillus fumigatus [1]; read-out: growth inhibition, hspA-atrR;ΔsrbA, 1.16 µg/mL): ~81%
- inhibition at 0.58 µg/mL (Aspergillus fumigatus [1]; read-out: growth inhibition, ΔatrR, 0.58 μg/mL): ~69%
- inhibition at 1.16 µg/mL (Aspergillus fumigatus [1]; read-out: growth inhibition, ΔatrR, 1.16 μg/mL): ~86%
- inhibition at 0.58 µg/mL (Aspergillus fumigatus [1]; read-out: growth inhibition, ΔsrbA, 0.58 μg/mL): ~62%
- inhibition at 1.16 µg/mL (Aspergillus fumigatus [1]; read-out: growth inhibition, ΔsrbA, 1.16 μg/mL): ~72%
- inhibition at 1.16 µg/mL (Aspergillus fumigatus [1]; read-out: growth inhibition, ΔsrbAΔatrR, 1.16 µg/mL): ~92%
- growth of parental wild-type strain in the presence of MBX-7591 (of untreated) (Aspergillus fumigatus [1]; first of two values): ~ 67%
- growth of parental wild-type strain in the presence of MBX-7591 (of untreated) (Aspergillus fumigatus [1]; second of two values): ~ 89%
- MIC (Cryptococcus neoformans [2]; strain H99, 0% CO2, read-out: MIC 0% CO2): > 39.2 µg/mL
- MIC (Cryptococcus neoformans [2]; strain H99, 5% CO2, Table S4, read-out: MIC 5% CO2): 2.45 µg/mL (≈ 6.24 µM)
- MIC (Cryptococcus neoformans [2]; strain H99, MIC obtained under 5% CO2, Table S3): 2.45 µg/mL (≈ 6.24 µM)
- MIC (Cryptococcus neoformans [2]; strain H99, read-out: MIC UTHSC): > 32 µg/mL
- MIC 0% CO2 (Cryptococcus neoformans [2]; strain A7-35-23, 0% CO2): > 39.25 µg/mL
- MIC 5% CO2 (Cryptococcus neoformans [2]; strain A7-35-23, 5% CO2): 2.45 µg/mL (≈ 6.24 µM)
- MIC 0% CO2 (Cryptococcus neoformans [2]; strain C23, 0% CO2): > 39.25 µg/mL
- MIC 5% CO2 (Cryptococcus neoformans [2]; strain C23, 5% CO2): 2.45 µg/mL (≈ 6.24 µM)
- MIC 0% CO2 (Cryptococcus neoformans [2]; strain JEC21, 0% CO2): > 39.25 µg/mL
- MIC 5% CO2 (Cryptococcus neoformans [2]; strain JEC21, 5% CO2): 2.45 µg/mL (≈ 6.24 µM)
- MIC (Mucor spp.; CBS277, strain CBS 277.49): > 39.2 µg/mL
- MIC (Mucor spp.; strain DI15-131, read-out: MIC UTHSC): > 32 µg/mL
- MIC UTHSC (Mucor spp.; strain Mucor1): > 32 µg/mL
- MIC UTHSC (Mucor spp.; strain Mucor2): > 32 µg/mL
- MIC (P. variotii): > 32 µg/mL
- MIC (Candida albicans; strain SC5314): > 39.2 µg/mL
- MIC (Candida albicans; strain SC5314, read-out: MIC UTHSC): > 32 µg/mL
- MIC (Scedosporium spp.; NIH: DI19-67, DI15-15, DI19-66, read-out: MIC UTHSC): > 32 µg/mL
- MIC (Scedosporium spp.; apiospermum (7D7), prolificans (7D8), JI 2018 "typical" (14E6)): > 39.2 µg/mL
- MIC (Aspergillus terreus): > 32 µg/mL
- solubility [3]: 50 µM (≈ 19.6 µg/mL)
- average FIC (Aspergillus fumigatus [4]): 0.5
- MIC (Aspergillus fumigatus [4]; strain 08-19-02-61, alone): 2.45 µg/mL
- MIC (Aspergillus fumigatus [4]; strain 08-31-08-91, alone): 4.91 µg/mL
- MIC (Aspergillus fumigatus [4]; strain F11628, alone): 2.45 µg/mL
- MIC (Aspergillus fumigatus [4]; strain F15390 (caf8), alone): 2.45 µg/mL
- FIC value (Aspergillus fumigatus [4]; CEA10, MBX-7591 + 7.81 μg/ml OA): 4
- FIC value (Aspergillus fumigatus [4]; CEA10, MBX-7591 + 15.63 μg/ml OA): 8
- FIC value (Aspergillus fumigatus [4]; CEA10, MBX-7591 + 31.25 μg/ml OA): > 8
- FIC value (Aspergillus fumigatus [4]; strain 08-19-02-61, MBX-7591 + VCZ): 0.5
- FIC value (Aspergillus fumigatus [4]; strain 08-31-08-91, MBX-7591 + VCZ): 0.5
- FIC score (Aspergillus fumigatus [4]; strain CEA10, MBX-7591 + FLC): 0.312
- FIC value (Aspergillus fumigatus [4]; strain CEA10, MBX-7591 + VCZ): 0.375–0.5
- FIC value (Aspergillus fumigatus [4]; strain F11628, MBX-7591 + VCZ): 0.3125–0.375
- FIC value (Aspergillus fumigatus [4]; strain F15390 (caf8), MBX-7591 + VCZ): 0.5
- CC50 [5]: > 100 µM
- CC50 (HeLa cells (ATCC CCL-2)): ≥ 100 µM
- host toxicity in the IPA murine model ([6]; 10 mg/kg IP, two doses): no host-associated toxicity
- lung fungal burden vs vehicle control (18S rDNA qPCR) ([6]; CD-1 mice, triamcinolone immunosuppressed, 10 mg/kg IP at 0 and 8 hours, lungs at 24 hours): over threefold decrease in fungal burden
- FIC value (Cryptococcus neoformans [7]): > 4
